This is an account of results in patent publication US20030207830A1, “Mutant NDP kinases for antiviral nucleotide analog activation and therapeutic uses thereof” (priority 2002, published 2003).

What all share (format): biochemical
For assay [1], the target named is T1, Dictyostelium NDP Kinase wt (Dictyostelium discoideum, UniProt P22887).
T1 construct: made in house
Briefly: Pre-steady-state fluorescence stopped-flow phosphotransfer from nucleoside triphosphates, wild type Dd-NDPK. The conditions noted are these: average of three determinations. Here is the method:
The binding constants were determined at equilibrium by recording the increase in fluorescence (Schneider, 2000).
After mixing NDPK (1 μM) and NTP or an analogTP (10-500 μM), the intrinsic protein fluorescence was recorded for 10-200 sec. In each experiment, 400 pairs of data were recorded, and the data from 3-4 identical experiments were averaged and fitted to a number of non-linear analytical equations using the software provided by Hi-Tech.
(§1) The data were analyzed using the reaction scheme: [drawing 1]
The rate of this observed single step is: [formula]
(§2) and reaches a limiting value (k+2) at NTP saturation. […] Therefore, catalytic efficiencies of phosphorylation (CEphos=k+2/(k−1/k+1)=k+2/KS) were measured, which are equivalent to second order constants and allow a reliable comparison of a variety of NDP kinase substrates.

The target in assay [2] is T2, Dictyostelium discoideum NDP kinase (Dd-NDPK) variant N119S, SEQ ID NO: 1 (Dictyostelium discoideum, UniProt P22887, N119S).
T2 construct: made in house
Description: Pre-steady-state phosphotransfer, fluorescence stopped-flow. The conditions noted are these: for k2/Ks: catalytic efficiency of phosphotransfer, N119S, pre-steady state; for reaction with N119S relative to wild type (times faster): from k2/Ks of Table I.

The target of assay [3] is T3, Dictyostelium discoideum NDP kinase (Dd-NDPK), wild type (Dictyostelium discoideum, UniProt P22887).
T3 construct: made in house
The description is as above. To be noted: catalytic efficiency of phosphotransfer, wt.

For assay [4], the target named is T4, human NDP kinase A (NDPK-A, nm23-H1), wild type (Homo sapiens, UniProt P15531).
T4 construct: made in house
The description is as above. The conditions noted are these: catalytic efficiency of phosphotransfer, NDPK-A, pre-steady state. Here is the method: FIG. 3 depicts the catalytic efficiency of NDPK-A and mutants for nucleoside analogs. The rates of phosphorylation of pure recombinant NDP kinases (1 μM) were measured at the pre-steady state in a fluorescence stopped-flow with d4T-TP (10 to 80 μM). The catalytic efficiency (expressed in M^−1s^−1) was determined from the variation of the rate as a function of analog as shown in FIG. 2 (▾, NDPK-A, ♦ L55H, ● N115S, ▪ L55H-N115S).
The activity assays were performed at the pre-steady state level.
Wild type human NDPK-A and the mutants were expressed and purified according to Schneider et al., 2000, Mol Pharm. Recombinant wild type and mutant Dd-NDPK were obtained as described (Schneid, 1998a), except for N119Y NDP kinase which was partially purified by Q sepharose FF chromatography. Each protein was characterized by […] electrophoresis. The concentration of 17 kDa subunits of the enzyme was either determined by Bradford assay ([…]) or using an absorbance coefficient of ΔA^280=1.249 for a 1 mg/mL solution of human wild type and N115S NDPK-A, and =0.55 for wild type and mutant N119S, N119T Dd-NDP kinases, respectively.
As the diphosphate form of analogs were not always available, the triphosphate analogs were used to study phosphate transfer in reaction as in Scheme I. Experiments were performed with an Hi-Tech DX2 microvolume stopped-flow reaction (Schneider, 1998) at Aexc=296 nm (for Ado derivatives) or […] (for other nucleotides), 2 mm excitation slit and a 320 nm cutoff filter at the emission. After mixing NDPK (1 μM) and NTP or an analogTP (10-500 μM), the intrinsic protein fluorescence was recorded for 10-200 sec. In each experiment, 400 pairs of data were recorded, and the data from 3-4 identical experiments were averaged and fitted to a number of non-linear analytical equations using the software provided by Hi-Tech.
as §1
In both the forward and the reverse reactions, the product concentration remains very low, thus the product binding can be neglected, and the observed single step could be attributed to the phosphotransfer (Schneider, 1998). The rate of this observed single step is: [formula]
as §2

Assay [5] concerns the target T5, human NDP kinase A (NDPK-A) variant L55H (Homo sapiens, UniProt P15531, L55H).
T5 construct: made in house; host or cells: E. coli
Described as above.

T2 sequence (P22887 whole entry N119S): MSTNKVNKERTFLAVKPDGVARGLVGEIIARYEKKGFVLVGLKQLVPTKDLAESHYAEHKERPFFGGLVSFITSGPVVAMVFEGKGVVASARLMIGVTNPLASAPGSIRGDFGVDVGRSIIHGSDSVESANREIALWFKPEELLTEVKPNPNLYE
T3 sequence (P22887 whole entry): as the sequence (P22887 whole entry N119S) above, with S119N counted along it
T5 sequence (P15531 whole entry L55H): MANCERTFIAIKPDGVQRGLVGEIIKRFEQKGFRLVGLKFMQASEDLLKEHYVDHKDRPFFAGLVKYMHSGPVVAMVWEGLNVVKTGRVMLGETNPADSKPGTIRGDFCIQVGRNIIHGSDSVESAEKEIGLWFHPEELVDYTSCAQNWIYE
T4 sequence (P15531 whole entry): as the sequence (P15531 whole entry L55H) above, with H55L counted along it
T1 sequence (P22887 whole entry): as the sequence (P22887 whole entry N119S) above, with S119N counted along it

In the case of `Nc1nc2c(ncn2[C@H]2CC[C@@H](COP(=O)(O)OP(=O)(O)OP(=O)(O)O)O2)c(=O)[nH]1` [ddGTP, dideoxy-GTP], in assay [1], the “k2/Ks wt (catalytic efficiency of phosphotransfer)” value was 2300 M⁻¹ s⁻¹. Further, the k2/Ks in assay [2] turned out to be 3500 M⁻¹ s⁻¹; in assay [3] it was 2300 M⁻¹ s⁻¹; in assay [4] it was 190 M⁻¹ s⁻¹. Further, the “reaction with N119S relative to wild type (times faster)” value in assay [2] was determined as 1.5 times.

Turning to `Cc1cn([C@H]2C[C@H](N=[N+]=[N-])[C@@H](COP(=O)(O)OP(=O)(O)OP(=O)(O)O)O2)c(=O)[nH]c1=O` [AZT-TP], the k2/Ks in assay [2] came out at 1100 M⁻¹ s⁻¹; in assay [3], 270 M⁻¹ s⁻¹; in assay [4] it was 75 M⁻¹ s⁻¹; in assay [5] (catalytic efficiency of phosphotransfer, L55H, pre-steady state) it was 930 M⁻¹ s⁻¹. Further, the “reaction with N119S relative to wild type (times faster)” value in assay [2] is recorded as 4 times. In addition, the “Specificity change (R)” value in assay [5] (ratio of catalytic efficiencies analog vs natural nucleotide, mutant vs wild type) was “(8)”.
